Compound in one assay: NC(=O)CCCCC1CCSS1 [lipoamide]
In words: thermal stability z-score vs DMSO; higher = more thermally stabilized by treatment. Particulars: HeLa, lipoamide concentration 100 µM. The procedure: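 Cellular thermal proteome profiling in HeLa cells. Cells were treated with 100 µM lipoamide for 1 h, with or without 1 mM arsenate for a further 1 h, then heated to ten temperatures (37-66.3 °C), and soluble protein was quantified by TMT mass spectrometry relative to 0.1% DMSO controls. The thermal stability score (sum of log2 fold changes minus the abundance score) was transformed to a z-score; mean of n = 3 experiments.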

Compound in the next assay: O=[As]([O-])(O)O.[K+] [potassium arsenate]
The assay is described as above. Particulars: HeLa; arsenate concentration 1 mM. As for the experimental part:
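Cellular thermal proteome profiling in HeLa cells treated with 1 mM arsenate for 1 h (DMSO pretreatment), heated to ten temperatures (37-66.3 °C). Soluble protein was quantified by TMT mass spectrometry relative to DMSO controls; the thermal stability score was transformed to a z-score; mean of n = 3 experiments.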

[1] abbreviates: arsenate co-treatment: 1 mM arsenate 1 h.
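Note: each temperature applied for 3 min, abundance score taken as mean log2 fold change at the two lowest temperatures, z-score obtained by mean subtraction and division by SD.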

Chain of UniProt Q86W34 (Q86W34 whole entry): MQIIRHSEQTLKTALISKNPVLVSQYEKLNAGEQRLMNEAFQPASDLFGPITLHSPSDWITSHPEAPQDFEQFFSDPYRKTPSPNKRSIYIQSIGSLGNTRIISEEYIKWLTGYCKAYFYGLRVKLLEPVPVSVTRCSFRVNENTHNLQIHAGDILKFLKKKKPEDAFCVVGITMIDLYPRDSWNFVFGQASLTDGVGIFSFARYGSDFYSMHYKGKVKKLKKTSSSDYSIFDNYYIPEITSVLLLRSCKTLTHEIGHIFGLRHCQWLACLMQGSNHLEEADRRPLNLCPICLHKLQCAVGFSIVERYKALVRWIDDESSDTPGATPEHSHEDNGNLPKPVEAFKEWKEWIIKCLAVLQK
Chain of UniProt P05141 (P05141 whole entry): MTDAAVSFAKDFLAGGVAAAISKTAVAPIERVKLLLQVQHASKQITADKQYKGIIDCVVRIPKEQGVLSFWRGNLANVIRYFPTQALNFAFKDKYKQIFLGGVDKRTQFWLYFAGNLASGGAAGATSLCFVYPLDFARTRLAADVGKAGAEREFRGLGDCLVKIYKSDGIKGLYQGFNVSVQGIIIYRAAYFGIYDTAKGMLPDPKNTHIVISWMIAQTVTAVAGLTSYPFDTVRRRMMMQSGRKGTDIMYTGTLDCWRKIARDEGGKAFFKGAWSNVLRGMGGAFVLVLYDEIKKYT
Chain of UniProt P51530 (P51530 whole entry): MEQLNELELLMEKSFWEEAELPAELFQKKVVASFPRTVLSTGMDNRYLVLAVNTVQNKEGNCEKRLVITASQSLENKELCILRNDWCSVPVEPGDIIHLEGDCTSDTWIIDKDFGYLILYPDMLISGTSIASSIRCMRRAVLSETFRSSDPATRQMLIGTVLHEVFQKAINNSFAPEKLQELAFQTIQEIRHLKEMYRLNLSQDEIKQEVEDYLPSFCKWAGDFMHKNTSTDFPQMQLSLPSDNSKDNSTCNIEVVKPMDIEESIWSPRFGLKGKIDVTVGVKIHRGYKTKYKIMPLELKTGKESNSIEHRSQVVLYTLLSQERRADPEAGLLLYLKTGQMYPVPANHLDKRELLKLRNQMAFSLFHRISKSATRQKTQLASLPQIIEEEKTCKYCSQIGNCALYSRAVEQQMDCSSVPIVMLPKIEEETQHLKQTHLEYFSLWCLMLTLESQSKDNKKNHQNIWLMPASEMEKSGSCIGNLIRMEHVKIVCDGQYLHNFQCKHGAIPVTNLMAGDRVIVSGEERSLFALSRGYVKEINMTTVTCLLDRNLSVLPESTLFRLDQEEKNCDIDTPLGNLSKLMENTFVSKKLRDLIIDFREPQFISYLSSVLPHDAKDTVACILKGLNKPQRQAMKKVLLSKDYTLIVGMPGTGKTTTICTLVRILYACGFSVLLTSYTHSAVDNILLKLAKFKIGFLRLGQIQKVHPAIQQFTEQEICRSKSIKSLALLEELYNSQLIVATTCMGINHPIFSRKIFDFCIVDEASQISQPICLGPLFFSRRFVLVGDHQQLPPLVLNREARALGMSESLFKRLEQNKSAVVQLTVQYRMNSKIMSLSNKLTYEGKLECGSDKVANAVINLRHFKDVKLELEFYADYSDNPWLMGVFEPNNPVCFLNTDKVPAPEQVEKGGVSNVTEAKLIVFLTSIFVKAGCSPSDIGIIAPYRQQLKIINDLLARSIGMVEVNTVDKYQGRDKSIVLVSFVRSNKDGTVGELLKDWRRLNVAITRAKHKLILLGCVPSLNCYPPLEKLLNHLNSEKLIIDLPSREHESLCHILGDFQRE
Chain of UniProt Q969G5 (Q969G5 whole entry): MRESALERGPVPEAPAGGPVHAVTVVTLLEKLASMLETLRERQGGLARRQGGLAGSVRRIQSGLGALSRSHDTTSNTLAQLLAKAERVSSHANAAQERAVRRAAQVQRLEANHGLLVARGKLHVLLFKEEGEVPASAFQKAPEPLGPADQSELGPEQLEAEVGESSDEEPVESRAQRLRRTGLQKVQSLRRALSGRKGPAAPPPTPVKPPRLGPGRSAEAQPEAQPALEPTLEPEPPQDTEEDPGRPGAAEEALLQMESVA
Chain of UniProt O14578 (O14578 whole entry): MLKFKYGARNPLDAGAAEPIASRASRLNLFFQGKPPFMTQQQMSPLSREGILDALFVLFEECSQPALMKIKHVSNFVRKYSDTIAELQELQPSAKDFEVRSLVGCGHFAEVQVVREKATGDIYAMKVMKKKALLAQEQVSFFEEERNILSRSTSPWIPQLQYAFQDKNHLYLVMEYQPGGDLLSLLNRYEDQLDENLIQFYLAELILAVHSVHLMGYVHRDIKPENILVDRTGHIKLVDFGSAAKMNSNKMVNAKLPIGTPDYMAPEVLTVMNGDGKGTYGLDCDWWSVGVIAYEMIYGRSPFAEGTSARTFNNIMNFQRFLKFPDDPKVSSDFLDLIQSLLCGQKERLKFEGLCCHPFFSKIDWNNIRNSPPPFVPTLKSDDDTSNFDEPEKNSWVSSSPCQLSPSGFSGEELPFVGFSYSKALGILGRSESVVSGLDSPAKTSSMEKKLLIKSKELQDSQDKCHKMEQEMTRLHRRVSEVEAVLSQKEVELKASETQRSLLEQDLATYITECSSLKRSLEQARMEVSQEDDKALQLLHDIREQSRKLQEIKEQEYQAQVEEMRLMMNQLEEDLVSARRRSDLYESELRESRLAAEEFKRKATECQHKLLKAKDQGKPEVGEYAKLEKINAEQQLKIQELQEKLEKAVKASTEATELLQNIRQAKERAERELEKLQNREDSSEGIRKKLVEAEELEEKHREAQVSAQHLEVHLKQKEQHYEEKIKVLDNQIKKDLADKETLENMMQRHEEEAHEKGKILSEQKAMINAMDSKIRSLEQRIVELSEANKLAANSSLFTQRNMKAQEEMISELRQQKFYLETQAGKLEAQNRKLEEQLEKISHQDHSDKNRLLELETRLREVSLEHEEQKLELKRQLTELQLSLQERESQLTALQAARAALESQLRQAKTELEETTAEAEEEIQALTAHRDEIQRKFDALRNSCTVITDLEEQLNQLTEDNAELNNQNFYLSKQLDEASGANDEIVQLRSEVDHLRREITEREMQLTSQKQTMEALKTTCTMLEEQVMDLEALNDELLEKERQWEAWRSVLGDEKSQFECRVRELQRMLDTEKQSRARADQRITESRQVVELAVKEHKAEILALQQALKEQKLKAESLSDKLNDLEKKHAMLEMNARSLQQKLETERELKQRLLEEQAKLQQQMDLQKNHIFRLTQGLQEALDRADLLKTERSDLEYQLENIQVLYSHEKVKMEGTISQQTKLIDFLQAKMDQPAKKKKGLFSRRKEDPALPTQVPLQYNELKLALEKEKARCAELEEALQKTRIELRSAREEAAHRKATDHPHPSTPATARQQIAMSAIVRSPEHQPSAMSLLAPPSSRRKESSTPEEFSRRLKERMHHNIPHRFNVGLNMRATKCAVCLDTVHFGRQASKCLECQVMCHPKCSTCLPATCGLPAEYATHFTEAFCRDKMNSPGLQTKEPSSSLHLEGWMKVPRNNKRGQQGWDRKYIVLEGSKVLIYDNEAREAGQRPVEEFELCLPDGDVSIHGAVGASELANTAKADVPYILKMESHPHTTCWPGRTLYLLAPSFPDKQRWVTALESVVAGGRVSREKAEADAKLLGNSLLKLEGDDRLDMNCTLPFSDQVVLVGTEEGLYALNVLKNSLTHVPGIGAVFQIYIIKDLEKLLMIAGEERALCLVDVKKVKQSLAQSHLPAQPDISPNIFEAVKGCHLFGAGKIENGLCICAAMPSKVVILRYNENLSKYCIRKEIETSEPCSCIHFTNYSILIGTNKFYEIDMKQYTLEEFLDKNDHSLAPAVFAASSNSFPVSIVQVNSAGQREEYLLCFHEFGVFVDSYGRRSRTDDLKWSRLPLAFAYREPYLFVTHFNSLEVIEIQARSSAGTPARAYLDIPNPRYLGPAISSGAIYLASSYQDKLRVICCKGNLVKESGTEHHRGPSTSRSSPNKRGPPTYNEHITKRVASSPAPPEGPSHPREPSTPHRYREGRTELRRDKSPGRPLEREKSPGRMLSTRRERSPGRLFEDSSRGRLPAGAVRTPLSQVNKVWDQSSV
Chain of UniProt P21281 (P21281 whole entry): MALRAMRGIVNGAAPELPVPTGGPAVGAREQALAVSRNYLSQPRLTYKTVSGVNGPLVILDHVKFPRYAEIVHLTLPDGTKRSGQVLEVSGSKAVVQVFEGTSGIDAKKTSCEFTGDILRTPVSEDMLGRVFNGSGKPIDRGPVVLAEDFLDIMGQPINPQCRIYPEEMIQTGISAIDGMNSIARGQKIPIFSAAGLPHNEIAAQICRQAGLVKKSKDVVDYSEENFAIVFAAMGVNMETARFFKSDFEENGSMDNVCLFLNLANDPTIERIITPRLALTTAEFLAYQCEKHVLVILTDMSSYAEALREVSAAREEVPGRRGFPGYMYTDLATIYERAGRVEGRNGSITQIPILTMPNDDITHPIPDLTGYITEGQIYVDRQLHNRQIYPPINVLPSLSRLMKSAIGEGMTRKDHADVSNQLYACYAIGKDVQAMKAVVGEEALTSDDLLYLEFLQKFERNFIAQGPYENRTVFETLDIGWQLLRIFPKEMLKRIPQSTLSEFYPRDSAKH
Chain of UniProt O00442 (O00442 whole entry): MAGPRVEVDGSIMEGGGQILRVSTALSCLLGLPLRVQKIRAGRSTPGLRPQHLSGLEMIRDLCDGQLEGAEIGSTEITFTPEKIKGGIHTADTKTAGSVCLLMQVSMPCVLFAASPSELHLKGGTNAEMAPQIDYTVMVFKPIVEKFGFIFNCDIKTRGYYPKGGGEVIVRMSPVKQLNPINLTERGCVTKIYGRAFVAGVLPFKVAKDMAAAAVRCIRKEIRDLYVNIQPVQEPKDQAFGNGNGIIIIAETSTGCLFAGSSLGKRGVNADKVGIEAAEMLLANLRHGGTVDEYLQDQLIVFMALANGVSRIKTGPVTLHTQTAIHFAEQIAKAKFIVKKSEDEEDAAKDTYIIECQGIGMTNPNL
Chain of UniProt Q9H3K6 (Q9H3K6 whole entry): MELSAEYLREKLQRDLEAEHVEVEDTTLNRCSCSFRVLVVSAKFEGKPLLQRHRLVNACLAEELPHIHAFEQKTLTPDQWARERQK

Turning to ZC3HC1 (UniProt Q86WB0), the thermal stability z-score with lipoamide (setting [1]) was -0.377; in the assay with lipoamide (arsenate co-treatment: none) it was 0.164; with potassium arsenate, -0.364.
For BAG1 (UniProt Q99933), in that order: -0.351, 0.0085 and -0.464.
ATP6V1B2 (UniProt P21281): the figures for the thermal stability z-score with lipoamide (setting [1]), with lipoamide (arsenate co-treatment: none) and in the assay with potassium arsenate were -0.0948, -0.684 and -0.745, respectively.
The corresponding values for HNRNPH2 (UniProt P55795) are -0.319, -0.0126 and -0.224.
Consider PSMB1 (UniProt P20618), for which the thermal stability z-score with lipoamide (setting [1]) was 1; with lipoamide (arsenate co-treatment: none), 0.743; with potassium arsenate, 0.497.
For the target CIT (UniProt O14578), the thermal stability z-score is 0.342 with lipoamide (setting [1]), -0.767 in the assay with lipoamide (arsenate co-treatment: none) and -0.76 with potassium arsenate.
For NSFL1C (UniProt Q9UNZ2), in that order: 0.605, 0.41 and 1.21.
For TFB2M (UniProt Q9H5Q4), in that order: -0.3, -0.261 and 0.215.
The corresponding values for GIGYF1 (UniProt O75420) are 0.0328, 0.0305 and 0.0812.
Turning to ZFYVE16 (UniProt Q7Z3T8), the thermal stability z-score is -0.45 with lipoamide (setting [1]), 0.222 with lipoamide (arsenate co-treatment: none) and -0.676 in the assay with potassium arsenate.
The corresponding values for ATP6V0A2 (UniProt Q9Y487) are -0.105, 0.146 and -0.424.
For DNA2 (UniProt P51530), in that order: -0.0519, -0.0211 and -0.131.
The corresponding values for SLC25A5 (UniProt P05141) are 0.657, 0.589 and 0.562.
On to PRKCDBP (UniProt Q969G5), for which the thermal stability z-score was 1.06 in the assay with lipoamide (setting [1]), -0.0261 with lipoamide (arsenate co-treatment: none) and 0.331 with potassium arsenate.
The corresponding values for DLAT (UniProt P10515) are -2.72, -0.583 and -11.2.
For SLC35F6 (UniProt Q8N357), in that order: -0.707, -0.328 and -0.279.
Consider ANKMY2 (UniProt Q8IV38), for which the thermal stability z-score with lipoamide (setting [1]) was determined as 0.0659; with lipoamide (arsenate co-treatment: none), 0.00957; in the assay with potassium arsenate, 0.0818.
For PITPNC1 (UniProt Q9UKF7), in that order: -0.545, -0.37 and -0.255.
For TLE3 (UniProt Q04726), the thermal stability z-score is 0.171 with lipoamide (setting [1]), 0.329 with lipoamide (arsenate co-treatment: none) and -0.674 in the assay with potassium arsenate.
Consider RTCA (UniProt O00442), for which the thermal stability z-score in the assay with lipoamide (setting [1]) is 0.213; with lipoamide (arsenate co-treatment: none) it was 0.21; with potassium arsenate, -0.695.
The corresponding values for AMZ2 (UniProt Q86W34) are 0.33, -0.032 and 0.211.
For BIN1 (UniProt O00499), in that order: -0.407, -0.803 and 0.183.
For ABCB8 (UniProt Q9NUT2), in that order: -0.84, -0.813 and -1.1.
As for BOLA2 (UniProt Q9H3K6), the thermal stability z-score stood at 0.16 in the assay with lipoamide (setting [1]), 0.49 with lipoamide (arsenate co-treatment: none) and 0.583 with potassium arsenate.
The corresponding values for PAICS (UniProt P22234) are 0.653, 0.549 and -0.0525.
The corresponding values for CAMK2D (UniProt Q13557) are 0.111, 0.215 and -0.0188.
The corresponding values for DDX17 (UniProt Q92841) are 0.121, 0.424 and -0.776.

Values taken from the supplement of paper PMC12463676, “Small-molecule dissolution of stress granules by redox modulation benefits ALS models” (Nature Chemical Biology, 2025).
